In ChEMBL document CHEMBL2073784, “Involvement of organic anion transporting polypeptides in the transport of troglitazone sulfate: implications for understanding troglitazone hepatotoxicity” (Drug Metab Dispos, 2004):
Where a name gives a salt, the structure may show the parent alone.

Experiments:
[1] = biological target: T1, Solute carrier organic anion transporter family member 1B1 (Homo sapiens, UniProt Q9Y6L6); assay: TP_TRANSPORTER: uptake in OATP1B1-expressing HEK293 cell; type: functional, cell-based
T1 sequence (Q9Y6L6 whole entry): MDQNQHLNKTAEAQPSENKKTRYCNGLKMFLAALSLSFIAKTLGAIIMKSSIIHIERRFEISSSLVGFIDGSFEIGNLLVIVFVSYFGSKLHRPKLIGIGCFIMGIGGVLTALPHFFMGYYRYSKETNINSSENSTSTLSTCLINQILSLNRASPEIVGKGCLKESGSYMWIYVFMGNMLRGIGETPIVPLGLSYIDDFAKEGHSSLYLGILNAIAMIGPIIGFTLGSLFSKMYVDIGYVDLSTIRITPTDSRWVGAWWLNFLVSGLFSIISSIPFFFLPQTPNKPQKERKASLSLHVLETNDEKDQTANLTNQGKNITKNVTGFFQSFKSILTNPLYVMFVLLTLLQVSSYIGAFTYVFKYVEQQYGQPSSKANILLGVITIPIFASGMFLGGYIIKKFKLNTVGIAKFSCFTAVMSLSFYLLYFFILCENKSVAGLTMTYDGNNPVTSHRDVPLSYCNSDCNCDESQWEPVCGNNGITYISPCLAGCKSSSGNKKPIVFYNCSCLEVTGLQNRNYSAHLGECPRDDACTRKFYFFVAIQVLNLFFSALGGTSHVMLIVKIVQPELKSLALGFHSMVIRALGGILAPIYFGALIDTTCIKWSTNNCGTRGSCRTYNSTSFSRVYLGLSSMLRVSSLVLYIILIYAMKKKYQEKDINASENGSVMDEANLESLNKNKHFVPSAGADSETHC

[2] = biological target: T2, OATP1B1 (SLCO1B1) (Homo sapiens, UniProt Q9Y6L6); assay: TP_TRANSPORTER: inhibition of Estrone-3-sulfate uptake(Estrone-3-sulfate: 9.2nM) in Xenopus laevis oocytes; type: functional, cell-based, Oocyte; parameters: scale not given: the % may be the effect or the level left; details: probe estrone-3-sulfate
T2 sequence (Q9Y6L6 whole entry): T1 sequence (Q9Y6L6 whole entry)

[3] = biological target: T1, Solute carrier organic anion transporter family member 1B1; assay: TP_TRANSPORTER: inhibition of E1S uptake (SN38 G 10 u M) in OATP1B1-expressing HEK293 cells; type: functional, cell-based; details: hek293, 10 µM
[4] = biological target: T3, Solute carrier organic anion transporter family member 1B3 (Homo sapiens, UniProt Q9NPD5); assay: TP_TRANSPORTER: uptake of SN-38 at a concentration of 0.09uL/oocyte in Xenopus laevis oocytes; type: functional, cell-based
T3 sequence (Q9NPD5 whole entry): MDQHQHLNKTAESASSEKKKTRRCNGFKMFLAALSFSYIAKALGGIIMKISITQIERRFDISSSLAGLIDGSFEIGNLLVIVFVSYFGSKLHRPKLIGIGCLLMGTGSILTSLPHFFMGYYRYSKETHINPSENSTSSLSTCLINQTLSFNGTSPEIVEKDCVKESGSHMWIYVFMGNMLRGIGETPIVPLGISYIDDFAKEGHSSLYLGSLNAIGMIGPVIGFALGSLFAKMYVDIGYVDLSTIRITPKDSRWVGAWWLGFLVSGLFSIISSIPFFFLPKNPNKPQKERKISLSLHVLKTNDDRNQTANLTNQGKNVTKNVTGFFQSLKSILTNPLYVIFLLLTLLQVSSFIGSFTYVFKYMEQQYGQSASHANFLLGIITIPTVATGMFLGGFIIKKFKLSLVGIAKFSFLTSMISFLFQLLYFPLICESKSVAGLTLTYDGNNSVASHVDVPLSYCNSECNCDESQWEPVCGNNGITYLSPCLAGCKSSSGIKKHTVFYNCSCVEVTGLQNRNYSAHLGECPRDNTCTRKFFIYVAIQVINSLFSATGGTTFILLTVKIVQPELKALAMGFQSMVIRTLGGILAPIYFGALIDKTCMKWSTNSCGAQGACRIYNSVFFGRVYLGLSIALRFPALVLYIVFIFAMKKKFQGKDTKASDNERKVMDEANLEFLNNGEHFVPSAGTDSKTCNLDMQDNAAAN

[5] = biological target: T1, Solute carrier organic anion transporter family member 1B1; assay: TP_TRANSPORTER: uptake of SN-38 at a concentration of 0.16uL/oocyte in Xenopus laevis oocytes; type: functional, cell-based
[6] = biological target: T1, Solute carrier organic anion transporter family member 1B1; assay: TP_TRANSPORTER: uptake in OATP1B1-expressing HEK293 cells; type: functional, cell-based
[7] = biological target: T4, Solute carrier organic anion transporter family member 2B1 (Homo sapiens, UniProt O94956); assay: TP_TRANSPORTER: uptake of SN-38 at a concentration of 0.10uL/oocyte in Xenopus laevis oocytes; type: functional, cell-based
T4 sequence (O94956 whole entry): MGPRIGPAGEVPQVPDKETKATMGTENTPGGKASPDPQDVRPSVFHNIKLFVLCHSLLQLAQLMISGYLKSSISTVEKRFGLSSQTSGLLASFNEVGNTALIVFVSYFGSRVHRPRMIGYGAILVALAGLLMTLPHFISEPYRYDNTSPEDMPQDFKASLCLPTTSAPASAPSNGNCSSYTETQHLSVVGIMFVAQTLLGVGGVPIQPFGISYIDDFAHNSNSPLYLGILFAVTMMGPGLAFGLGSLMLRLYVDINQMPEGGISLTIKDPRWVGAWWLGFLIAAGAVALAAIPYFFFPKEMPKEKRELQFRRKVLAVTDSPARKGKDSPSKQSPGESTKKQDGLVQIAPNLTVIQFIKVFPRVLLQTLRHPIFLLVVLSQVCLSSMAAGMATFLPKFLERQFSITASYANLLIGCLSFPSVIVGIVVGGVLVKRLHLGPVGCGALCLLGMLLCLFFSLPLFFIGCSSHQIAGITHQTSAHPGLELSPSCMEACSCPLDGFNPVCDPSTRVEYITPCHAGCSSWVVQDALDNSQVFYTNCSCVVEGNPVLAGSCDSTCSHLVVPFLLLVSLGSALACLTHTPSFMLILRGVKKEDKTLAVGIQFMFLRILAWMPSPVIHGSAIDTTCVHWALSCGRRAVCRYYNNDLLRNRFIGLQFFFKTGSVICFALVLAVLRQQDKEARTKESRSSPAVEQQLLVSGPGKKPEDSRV

[8] = biological target: T1, Solute carrier organic anion transporter family member 1B1; assay: TP_TRANSPORTER: inhibition of E1S uptake (SN38 10 u M) in OATP1B1-expressing HEK293 cells; type: functional, cell-based; parameters: scale not given: the % may be the effect or the level left; details: hek293, 10 µM
[9] = biological target: T3, Solute carrier organic anion transporter family member 1B3; assay: TP_TRANSPORTER: cell accumulation in OATP8-expressing Xenopus oocytes; type: functional, cell-based; details: xenopus laevis, oocyte
[10] = biological target: T1, Solute carrier organic anion transporter family member 1B1; assay: TP_TRANSPORTER: cell accumulation in OATP-C-expressing Xenopus oocytes; type: functional, cell-based; details: xenopus laevis, oocyte
[11] = biological target: T2, OATP1B1 (SLCO1B1); assay: TP_TRANSPORTER: inhibition of E1S uptake (irinotecan 10 u M) in OATP1B1-expressing HEK293 cells; type: functional, cell-based; parameters: scale not given: the % may be the effect or the level left; details: HEK293 cells expressing OATP1B1, probe estrone-3-sulfate (E1S), read-out: Activity
[12] = biological target: T5, OATP8 (OATP1B3, SLCO1B3) (Homo sapiens, UniProt Q9NPD5); assay: TP_TRANSPORTER: inhibition of estrone-3-sulfate uptake (Estrone-3-sulfate: 9.2 nM) by Pioglitazone at a concentration of 10uM in OATP8-expressing Xenopus oocytes; type: functional, cell-based, Oocyte; details: xenopus laevis, Xenopus laevis oocytes expressing OATP8, probe estrone-3-sulfate
T5 sequence (Q9NPD5 whole entry): T3 sequence (Q9NPD5 whole entry)

[13] = biological target: T6, OATP-C (OATP1B1, SLCO1B1) (Homo sapiens, UniProt Q9Y6L6); assay: TP_TRANSPORTER: inhibition of estrone-3-sulfate uptake (Estrone-3-sulfate: 9.2 nM) by Pioglitazone at a concentration of 10uM in OATP-C-expressing Xenopus oocytes; type: functional, cell-based, Oocyte; details: xenopus laevis, probe estrone-3-sulfate
T6 sequence (Q9Y6L6 whole entry): T1 sequence (Q9Y6L6 whole entry)

[14] = biological target: T5, OATP8 (OATP1B3, SLCO1B3); assay: TP_TRANSPORTER: inhibition of estrone-3-sulfate uptake (Estrone-3-sulfate: 9.2 nM) by Quinone Form at a concentration of 10uM in OATP8-expressing Xenopus oocytes; type: functional, cell-based, Oocyte; details: xenopus laevis, Xenopus laevis oocytes expressing OATP8, probe estrone-3-sulfate
[15] = biological target: T6, OATP-C (OATP1B1, SLCO1B1); assay: TP_TRANSPORTER: inhibition of estrone-3-sulfate uptake (Estrone-3-sulfate: 9.2 nM) by Quinone Form at a concentration of 10uM in OATP-C-expressing Xenopus oocytes; type: functional, cell-based, Oocyte; details: xenopus laevis, probe estrone-3-sulfate
[16] = biological target: T6, OATP-C (OATP1B1, SLCO1B1); assay: TP_TRANSPORTER: inhibition of estrone-3-sulfate uptake (Estrone-3-sulfate: 9.2 nM) by Rosiglitazone at a concentration of 10uM in OATP-C-expressing Xenopus oocytes; type: functional, cell-based, Oocyte; details: xenopus laevis, probe estrone-3-sulfate
[17] = biological target: T6, OATP-C (OATP1B1, SLCO1B1); assay: TP_TRANSPORTER: inhibition of estrone-3-sulfate uptake (Estrone-3-sulfate: 9.2 nM) by Troglitazone glucuronide at a concentration of 10uM in OATP-C-expressing Xenopus oocytes; type: functional, cell-based, Oocyte; details: xenopus laevis, probe estrone-3-sulfate
[18] = biological target: T5, OATP8 (OATP1B3, SLCO1B3); assay: TP_TRANSPORTER: inhibition of estrone-3-sulfate uptake (Estrone-3-sulfate: 9.2 nM) by Troglitazone sulfate at a concentration of 10uM in OATP8-expressing Xenopus oocytes; type: functional, cell-based, Oocyte; details: xenopus laevis, Xenopus laevis oocytes expressing OATP8, probe estrone-3-sulfate
[19] = biological target: T6, OATP-C (OATP1B1, SLCO1B1); assay: TP_TRANSPORTER: inhibition of estrone-3-sulfate uptake (Estrone-3-sulfate: 9.2 nM) by Troglitazone sulfate at a concentration of 10uM in OATP-C-expressing Xenopus oocytes; type: functional, cell-based, Oocyte; details: xenopus laevis, probe estrone-3-sulfate
[20] = biological target: T6, OATP-C (OATP1B1, SLCO1B1); assay: TP_TRANSPORTER: inhibition of estrone-3-sulfate uptake (Estrone-3-sulfate: 9.2 nM) by Troglitazone at a concentration of 10uM in OATP-C-expressing Xenopus oocytes; type: functional, cell-based, Oocyte; details: xenopus laevis, probe estrone-3-sulfate

`CCc1c2c(nc3ccc(OC[C@@H]4O[C@H](C(=O)O)[C@@H](O)[C@H](O)[C@H]4O)cc13)-c1cc3c(c(=O)n1C2)COC(=O)[C@]3(O)CC` was tested, and the Activity [1] was “is not a substrate [-]”, the Activity [2] was 45% and the Activity [3] was “is not an inhibitor [-]”.
`CCc1c2c(nc3ccc(O)cc13)-c1cc3c(c(=O)n1C2)COC(=O)[C@]3(O)CC` [7-ETHYL-10-HYDROXYCAMPTOTHECIN] was tested, and the Activity [4] was “is not a substrate [-]”, the Activity [1] was “substrate [+]” and the Activity [2] was 85%. The Activity [5] was “substrate [+]”, the Activity [6] was “substrate []” and the Activity [7] was “is not a substrate [-]”. The Activity [8] was 50%.
With `C[C@]12CC[C@@H]3c4ccc(OS(=O)(=O)O)cc4CC[C@H]3[C@@H]1CCC2=O` [ESTRONE SULFURIC ACID] the Activity [9] was “substrate []” and the Activity [10] was “substrate []”.
With `CCc1c2c(nc3ccc(OC(=O)N4CCC(N5CCCCC5)CC4)cc13)-c1cc3c(c(=O)n1C2)COC(=O)[C@]3(O)CC` [IRINOTECAN] the Activity [1] was “is not a substrate [-]”, the Activity [2] was 60% and the activity at 10 µM [11] was 60%.
For `CCc1ccc(CCOc2ccc(CC3SC(=O)NC3=O)cc2)nc1` (stereo not given) [PIOGLITAZONE], the inhibition at 10 µM [12] was 65% and the inhibition at 10 µM [13] was 70%.
Work on `CC1=CC(=O)C(C)=C(CCC(C)(C)COc2ccc(CC3SC(=O)NC3=O)cc2)C1=O` (stereo not given) [QUINONE FORM] yielded an inhibition at 10 µM [14] of 60% and an inhibition at 10 µM [15] of 20%.
For `CN(CCOc1ccc(CC2SC(=O)NC2=O)cc1)c1ccccn1` (stereo not given) [ROSIGLITAZONE], the inhibition at 10 µM [16] was 60%.
`Cc1c(C)c2c(c(C)c1O[C@@H]1O[C@H](C(=O)O)[C@@H](O)[C@H](O)[C@H]1O)CCC(C)(COc1ccc(CC3SC(=O)NC3=O)cc1)O2` (stereo not given in full) [TROGLITAZONE GLUCURONIDE] was tested, and the inhibition at 10 µM [17] was 30%.
With `Cc1c(C)c2c(c(C)c1OS(=O)(=O)O)CCC(C)(COc1ccc(CC3SC(=O)NC3=O)cc1)O2` (stereo not given) [TROGLITAZONE SULFATE] the inhibition at 10 µM [18] was 20%, the inhibition at 10 µM [19] was 5% and the Activity [10] was “substrate []”.
Compound `Cc1c(C)c2c(c(C)c1O)CCC(C)(COc1ccc(CC3SC(=O)NC3=O)cc1)O2` (stereo not given) [TROGLITAZONE] has an inhibition at 10 µM [20] of 35%.
